Laboratory results published in US20190192502A1, “Modulation of Transcription Initiation Factor TFIID Subunit 1 (TAF1) for Treating Leukemia” (UNIVERSITY OF MIAMI, priority 2017, published 2019).

Experiments:
[1] = tested on: Kasumi-1 cells; assay: Cell growth, CellTiter-Glow luminescent cell viability assay, Kasumi-1 cells; type: cell-based, human; conditions: for growth of Kasumi-1 cells: 3 days of treatment
Experimental: (§1) FIGS. 8A-8F. The effect of TAF1 bromodomain inhibitor Bay-364 on the growth of Kasumi-1 cells, K562 cells and CD34+ cells. (FIGS. 8A-8C) The growth of Kasumi-1 cells, CD34+ cells and K562 cells in the presence or absence of different concentrations of bromodomain inhibitors Bay-364, Bay-299 or JQ-1. The cell growth was measured by CellTiter-Glow luminescent cell viability assay after 3 days of treatment with the inhibitors. Each treatment was in triplicate and shown as average±SD. (FIG. 8D) IC50s (μM) of inhibitors on Kasumi-1, CD34+ and K562 cellsKasumi-1 cells, CD34+ cells and K562 cells were treated with different concentrations of Bay-364, Bay-299 and JQ-1 for three days and cell growth was measured by CellTiter-Glow luminescent cell viability assay. Each treatment was in triplicate and IC50s were calculated using GraphPad Prism. […] RNA was extracted from Kasumi-1 cells treated with or without Bay-364 for 72 hours. mRNA levels of individual genes were standardized by 18S rRNA level. (FIG. 8F) TAF1 working model: Under normal conditions, the acetylation of K43 on AE by p300 is recognized by the bromodomains of TAF1 and TAF1 enhances the binding of AE to chromatin. Then transcription is activated. In absence of TAF1, the binding affinity of AE with chromatin is abrogated, and transcription is blocked.
Kasumi-1 cells were grown in RPMI 1640 supplemented with 20% fetal bovine serum, SKNO-1 cells were grown in RPMI 1640 with 10% fetal bovine serum and 10 ng/ml GM-CSF. K562 cells were grown in IMDM with 10% fetal bovine serum.
Bay-364 (also Bay-299N) is a commercially available small molecule inhibitor of the second bromodomain in TAF1. Given the essential role of TAF1 in the proliferation of AE expressing cells, the effect of Bay-364 on the growth of Kasumi-1, K562 and CD34+ cells was examined. […] JQ-1 inhibits the bromodomains of several BET family proteins including BRD2, BRD3, BRD4 and BRDT.

[2] = tested on: CD34+ cells; assay: Cell growth, CellTiter-Glow luminescent cell viability assay, CD34+ cells; type: cell-based, human; conditions: 3 days of treatment
Experimental: as §1, with “(FIG. 8F) TAF1 working model: Under normal conditions, the acetylation of K43 on AE by p300 is recognized by the bromodomains of TAF1 and TAF1 enhances the binding of AE to chromatin. Then transcription is activated. In absence of TAF1, the binding affinity of AE with chromatin is abrogated, and transcription is blocked.” left out
Human cord blood was purchased from the New York Blood Center. […] Seven days after the initial plating, colonies were counted and then all the cells were collected for replating weekly with a density of 3000 cells per well for continuous 4 weeks. Cobblestone area forming cell assays (CAFC) were performed as described previously 25, the numbers of total cobblestone area were counted after 5 weeks. […]

[3] = tested on: K562 cells; assay: Cell growth, CellTiter-Glow luminescent cell viability assay, K562 cells; type: cell-based; conditions: 3 days of treatment
Experimental: as §1, with “blocked. […]” for “blocked.”

[4] = tested on: AE upregulated genes (ID1, CARM1, MYC); assay: Realtime PCR of AE upregulated genes in Kasumi-1 cells; type: cell-based, human; conditions: 72 hours, standardized by 18S rRNA level
Experimental: as §1, with “In absence of TAF1, the binding affinity of AE with chromatin is abrogated, and transcription is blocked.” left out
RNA was extracted using RNeasy mini kit (Qiagen) and cDNA was generated by QuantiTect Rev. […]

| Compound | growth of Kasumi-1 cells [1] | IC50s on Kasumi-1 cells compared with CD34+ cells ([1]; three days, GraphPad Prism) | growth of CD34+ cells [2] | growth of K562 cells [3] | mRNA levels of ID1, CARM1, MYC [4] |
| --- | --- | --- | --- | --- | --- |
| Cc1sc2c(c1C)C(c1ccc(Cl)cc1)=N[C@@H](CC(=O)OC(C)(C)C)c1nnc(C)n1-2 [JQ-1] | more potent than Bay-364 | quite similar | – | – | – |
| Cn1c(=O)[nH]c2cc(N3C(=O)c4cccc5c(CCCO)ccc(c45)C3=O)ccc21 [Bay-364] | more sensitive to Bay-364 treatment than CD34+ cells | – | much less toxicity on HSPCs | little influence on the growth | repressed the expression of these genes |
| Cc1cc2c(cc1N1C(=O)c3cccc4c(CCCO)ccc(c34)C1=O)n(C)c(=O)n2C [Bay-299, 6-(3-Hydroxypropyl)-2-(1,3,6-trimethyl-2-oxo-2,3-dihydro-1Hbenzimidazol-5-yl)-1H-benzo[de]isoquinoline-1,3(2H)-dione] | suppresses the growth | – | suppresses the growth | suppresses the growth | – |
